Legend:
Format in all cases: cell-based
CDK13 = target: T1, CDK13 (Homo sapiens, UniProt Q14004); test: CDK13 degradation in MDA-MB-231 cells by immunoblotting;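 for Protein Degradation (%DMSO control, 0.3 μM) CDK13: percent of CDK13 protein degraded relative to DMSO control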
T1 construct: Immunoblotting of CDK12 and CDK13 in MDA-MB-231 cells treated with increasing concentrations of ZLC491 for 15 h; endogenous in cells; host or cells: MDA-MB-231
In short: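 MDA-MB-231 cells treated with ZLC491 at increasing concentrations for 15 h (screening at 0.3 μM; time course at 1 μM); SDS lysates immunoblotted, band intensities normalised to α-tubulin. DC50 taken from percent remaining protein versus concentration; representative of three independent experiments.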

MDA-MB-231 cells = test: Cell proliferation assay (CCK-8); conditions: Homo sapiens, MDA-MB-231, 120 h; 5 days
Procedure: (§1) (A) Transcription level of DDR genes in MDA-MB-231 cells determined by RT-qPCR upon the treatment with vehicle or ZLC491 at different doses for 12 h, ROR1 was used as a negative control; (B) immunoblotting of DDR proteins in MDA-MB-231 cells after the treatment of ZLC491 at different doses for 48 h; (C) cell antiproliferative activity of ZLC491 in multiple TNBC cells as well as several noncancerous cells. Cells were treated with the compound for 5 days; (D,E) antiproliferative potency of cisplatin or olaparib alone or combined with ZLC491 at different doses in MDA-MB-231 cells for 5 days. Data are plotted using the percentage of absorbance relative to DMSO controls. (F) IC50 values and combination index (CI) in drug combination assay. In this model, CI scores estimate the interaction between the two drugs. If CI < 1, the drugs have a synergistic effect and if CI > 1, the drugs have an antagonistic effect. CI = 1 means the drugs have an additive effect. ^aThe drug combination in the table refers to the starting concentration of the two combined drugs, that would both go through serial dilution when treating cells.
(§2) TNBC cell lines MDA-MB-231, MDA-MB-436 and HCC38, human embryonic kidney cell line HEK 293 and human embryonic lung cell line MRC-5 were purchased from American Type Culture Collection (ATCC). Human mammary epithelial cell line MCF 10A was obtained from Chinese Academy of Sciences National Collection of Authenticated Cell Cultures. MDA-MB-231 was maintained in Leibovitz’ s L-15 medium (Gibco) supplemented with 10% fetal bovine serum (FBS; Excell Bio) and 1% penicillin/streptomycin (P/S; Gibco) at 37 °C in a humidified chamber of 100% air atmosphere. MDA-MB-436 and HCC38 were developed in Dulbecco’s modified Eagle medium (DMEM; Gibco) and RPMI-1640 medium (Gibco), respectively, both supplemented with 10% FBS (Excell Bio) and 1% P/S (Gibco), using a 37 °C constant temperature incubator with 5% CO2. HEK 293 and MRC-5 were cultured in the same condition with Eagle’s minimum essential medium (EMEM; Wisent). MCF 10A was grown in Mammary Epithelial Cell Growth Medium BulletKit (Lonza) at 37 °C in a humidified chamber with 5% CO2.
(§3) Tested cells were plated in 96-well or 384-well plates and incubated at 37 °C with or without 5% CO2. After overnight incubation, serial dilutions of compounds were added to the plate. Cell proliferation was measured 5 days after compound treatment using Cell Counting Kit-8 (Selleck) according to the manufacturer’s instructions.

MDA-MB-436 cells = test: Cell proliferation assay (CCK-8); conditions: Homo sapiens, MDA-MB-436, 120 h; 5 days
Procedure: as §1, §2, §3

MCF 10A cells = test: Cell proliferation assay (CCK-8); conditions: Homo sapiens, 120 h, 5 days, noncancerous mammary epithelial cells
Procedure: as §1, §2, §3

HEK 293 cells = test: Cell proliferation assay (CCK-8); conditions: Homo sapiens, HEK293, 120 h; 5 days, noncancerous embryonic kidney cells
Procedure: as §1, §2, §3

MRC-5 cells = test: Cell proliferation assay (CCK-8); conditions: Homo sapiens, MRC5, 120 h; 5 days, noncancerous embryonic lung cells
Procedure: as §1, §2, §3

HCC38 cells = test: Cell proliferation assay (CCK-8); conditions: Homo sapiens, HCC38, 120 h; 5 days
Procedure: as §1, §2, §3

T1 sequence (Q14004 whole entry): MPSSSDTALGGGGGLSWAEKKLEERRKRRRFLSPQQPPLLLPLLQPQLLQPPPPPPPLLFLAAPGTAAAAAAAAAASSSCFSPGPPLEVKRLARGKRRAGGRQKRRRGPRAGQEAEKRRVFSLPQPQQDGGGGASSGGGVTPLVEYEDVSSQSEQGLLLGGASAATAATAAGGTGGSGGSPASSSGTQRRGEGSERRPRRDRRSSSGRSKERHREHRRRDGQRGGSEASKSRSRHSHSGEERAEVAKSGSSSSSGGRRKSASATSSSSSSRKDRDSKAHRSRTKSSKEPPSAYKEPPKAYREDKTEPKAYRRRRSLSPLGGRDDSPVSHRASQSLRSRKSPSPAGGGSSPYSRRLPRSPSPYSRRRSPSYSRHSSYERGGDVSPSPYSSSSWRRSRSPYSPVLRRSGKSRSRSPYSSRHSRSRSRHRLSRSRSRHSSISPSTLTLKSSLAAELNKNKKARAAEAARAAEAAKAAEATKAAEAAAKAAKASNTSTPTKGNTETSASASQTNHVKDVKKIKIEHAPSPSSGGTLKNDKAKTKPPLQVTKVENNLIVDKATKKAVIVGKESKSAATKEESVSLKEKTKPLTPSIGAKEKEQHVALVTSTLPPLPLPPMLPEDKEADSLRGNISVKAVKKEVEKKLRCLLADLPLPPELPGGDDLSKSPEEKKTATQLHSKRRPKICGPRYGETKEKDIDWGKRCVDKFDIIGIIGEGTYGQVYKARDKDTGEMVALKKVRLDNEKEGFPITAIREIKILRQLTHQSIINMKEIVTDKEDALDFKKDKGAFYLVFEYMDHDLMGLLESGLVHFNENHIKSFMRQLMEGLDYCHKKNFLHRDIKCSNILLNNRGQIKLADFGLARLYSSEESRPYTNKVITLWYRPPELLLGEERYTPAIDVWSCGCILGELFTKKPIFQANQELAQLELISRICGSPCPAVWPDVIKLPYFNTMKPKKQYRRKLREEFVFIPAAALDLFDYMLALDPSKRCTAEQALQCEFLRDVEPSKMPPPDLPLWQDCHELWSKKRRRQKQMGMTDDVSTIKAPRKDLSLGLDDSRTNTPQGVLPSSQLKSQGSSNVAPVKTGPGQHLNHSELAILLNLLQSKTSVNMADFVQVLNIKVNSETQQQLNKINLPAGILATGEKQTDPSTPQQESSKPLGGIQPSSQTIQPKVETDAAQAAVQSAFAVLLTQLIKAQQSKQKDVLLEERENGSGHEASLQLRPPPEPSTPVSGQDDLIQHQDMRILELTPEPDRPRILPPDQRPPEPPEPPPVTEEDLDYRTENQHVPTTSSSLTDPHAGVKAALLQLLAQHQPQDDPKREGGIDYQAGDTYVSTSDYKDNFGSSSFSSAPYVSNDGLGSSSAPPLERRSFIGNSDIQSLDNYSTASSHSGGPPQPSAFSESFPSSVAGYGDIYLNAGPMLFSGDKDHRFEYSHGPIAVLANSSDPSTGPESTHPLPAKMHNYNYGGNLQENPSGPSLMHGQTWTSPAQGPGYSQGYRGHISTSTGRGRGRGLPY
T1 sequence (O75909 whole entry partner): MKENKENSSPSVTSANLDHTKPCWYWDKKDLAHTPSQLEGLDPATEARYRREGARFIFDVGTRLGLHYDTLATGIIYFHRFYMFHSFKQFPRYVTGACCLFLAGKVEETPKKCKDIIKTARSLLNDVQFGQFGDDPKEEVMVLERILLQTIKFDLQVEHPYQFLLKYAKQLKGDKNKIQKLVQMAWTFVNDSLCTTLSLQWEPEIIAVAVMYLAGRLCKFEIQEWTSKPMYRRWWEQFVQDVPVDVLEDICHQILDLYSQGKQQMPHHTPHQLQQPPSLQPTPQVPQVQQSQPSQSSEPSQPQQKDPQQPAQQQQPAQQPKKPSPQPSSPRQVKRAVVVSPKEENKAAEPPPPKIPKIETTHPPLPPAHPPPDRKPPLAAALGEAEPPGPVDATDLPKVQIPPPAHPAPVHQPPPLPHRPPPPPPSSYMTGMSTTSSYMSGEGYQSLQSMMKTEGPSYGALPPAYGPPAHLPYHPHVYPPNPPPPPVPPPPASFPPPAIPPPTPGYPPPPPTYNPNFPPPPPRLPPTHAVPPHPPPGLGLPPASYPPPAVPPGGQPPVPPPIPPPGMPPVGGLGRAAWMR

N#Cc1ccc(N[C@H]2CC[C@H](N(C(=O)NCc3ccccc3)c3ccc(N4CCN(C5CCN(c6cc7c(cc6F)C(=O)N(C6CCC(=O)NC6=O)C7=O)CC5)CC4)cc3)CC2)nc1 (stereo partly shown) [ZLC491, 3-Benzyl-1-((1r,4r)-4-((5-cyanopyridin-2-yl)amino)cyclohexyl)-1-(4-(4-(1-(2-(2,6-dioxopiperidin-3-yl)-6-fluoro-1,3-dioxoisoindolin-5-yl)piperidin-4-yl)piperazin-1-yl)phenyl)urea]
CDK13 degradation, immunoblotting of the proteomic samples (CDK13; 2 μM, 8 h, MDA-MB-231): significantly degraded
Protein Degradation (%DMSO control, 0.3 μM) CDK13 (CDK13; MDA-MB-231 cells, 0.3 μM, 15 h, immunoblotting, normalized against α-tubulin): 90%
DC50 (CDK13; MDA-MB-231 cells, 15 h): 0.028 µM
Degradation rates of CDK13 at 0.3 μM (CDK13; supplementary CSV, 0.3 μM): 90%
IC50 (MDA-MB-231 cells): 0.62 µM
IC50 (MDA-MB-436 cells): 0.12 µM
IC50 (MCF 10A cells): > 10 µM
IC50 (HEK 293 cells): > 10 µM
IC50 (MRC-5 cells): > 10 µM
IC50 (HCC38 cells): 0.19 µM
